Reference: a melting point compilation (Tetko et al.; mined from patent text by program, amines drawn as free bases though some values may be those of a salt)

Compound | melting point [°C]
O=C1N(Cc2cc(F)ccn2)c2ccccc2C12COc1cc3c(cc12)OCCO3 (centres undefined) | 228 to 231
O=C(CCC(O)=NO)c1cccs1 | 133 to 138
CCCc1cc(-c2noc3cc(O)ccc23)c(CCC)cc1O | 162 to 163
CC(=O)Nc1ccc(F)c(F)c1F | 87 to 88
CCOC(=O)Cc1nc(-c2ccc(Cl)cc2)oc1Oc1ccc(Cl)cc1 | 70 to 72
CN1CCN(C2=CCCc3ccc(OCc4ccc(Cl)cc4)cc32)CC1 | 115 to 116
CC(=O)c1ccnc(N(C)C)c1 | 37 to 42
Cc1ccc(C=CC2CCC(c3ccccc3)(N(C)C)CC2)cc1 (centres undefined) | 130 to 145
Fc1c(F)c(F)c(CSc2nc3ccccc3[nH]2)c(F)c1F | 189 to 196
COc1ccc(-c2cnc3cc4cnn(C[C@@H](O)CO)c4cc3n2)cc1F | 228 to 234
COc1ccc(C2NCc3c2[nH]c2ccccc2c3=O)cc1OC (centres undefined) | 223 to 225
CC1(C)SC(c2ccco2)NC1C(=O)O (centres undefined) | 141 to 143
NC(=O)N(O)C[C@@H]1C[C@H]1c1cccc(Oc2ccncc2)c1 (relative stereo) | 130 to 132
CSc1c(O)ccc2[nH]ncc12 | 126 to 128
CCC(O)C1C(N2CCN(C)CC2)=Nc2ccccc2N=C1N1CCN(C)CC1 (centres undefined) | 163 to 166
CCOC(OCC)(c1ccc(F)cc1)C1CCN(CCc2c(C)nc3scc(C)n3c2=O)CC1 | 116
CC(C)(C)C1CCC2(CC1)CC(=NO)CO2 (centres undefined) | 118
COc1ccc(C(=C2CCCCC2)c2ccc(OC)cc2)cc1 | 106 to 107
CCCCCC(=O)CCC(C)=O | 18
CSC(=S)N1CC(C)(C)CSC1=Nc1ccccc1C(C)C | 77 to 79
COc1cc2[nH]c(=O)c(=O)n(C)c2cc1[N+](=O)[O-] | 356
CCCCN1C(=O)C(C)(C)N=C(c2ccccc2F)c2cc([N+](=O)[O-])cc(Cl)c21 | 151
CC(C)CCOCC(O)C(CC(C)C)NC(=O)C(Cc1c[nH]cn1)NC(=O)C(CC(=O)NCCc1ccccc1)Cc1cccc2ccccc12 (mixture of isomers) | 73 to 76
COc1c(Cl)c(-c2nnc(C)s2)cc2oc(=O)c(C)c(C)c12 | 209 to 210
COc1cc2c(=O)c(S(=O)(=O)N(C)C)cn(C)c2cc1C | 232 to 233
CN(C)CC(O)C1=CC2(CCCC2)c2ccccc21 (centres undefined) | 133 to 134
COC(=O)C1(NC(=O)Cc2cc(C(C)=O)ccc2C)CCN(OC)CC1 | 138 to 139

Results, then the compound that gave them:

melting point [°C] | Compound
76 to 78 | CN(CCc1ccc([N+](=O)[O-])cc1)Cc1cc2cc([N+](=O)[O-])ccc2s1
153 to 155 | COC(=O)c1ccc(NS(=O)(=O)c2ccc(Oc3cccc(Cl)c3C#N)cc2)cn1
240 to 242 | C[C@@H](Nc1ncnc2[nH]c(-c3ccc(CN4CCNCC4)cc3)cc12)c1ccccc1
180 to 182 | COc1ccc(C(=O)NNC(=O)c2occ(-c3ccccc3)c2-c2ccccc2)cc1NS(C)(=O)=O
136 to 138 | COc1ccc(C(=O)Nc2cc(NC(=O)c3cccc(Br)c3)ccc2C)cc1OC
70 | Cc1ccc(S(=O)(=O)OC(C#N)(c2ccccc2)C(F)(F)F)cc1 (centres undefined)
173 | CCOC(=O)c1c(O)c2ccccc2[nH]c1=O
214 to 216 | N#Cc1cnn2c1N(C(=O)CN1CCN(C(=O)Nc3ccc(Cl)c(C(F)(F)F)c3)CC1)CC=C2c1cccc(C(F)(F)F)c1
58 to 62 | CC1(Cc2ccc(OCc3ccccc3)cc2)OCCO1
132 | O=c1[nH]c2ccc(Cl)cc2n1CCCN1CCN(C(c2ccccc2)c2ccccc2)CC1
196 to 198 | C[C@@H](NC(=O)c1ccc(-c2csnn2)cc1)[C@](O)(Cn1cncn1)c1ccc(F)cc1F
160 to 161 | Cc1ccc2c(c1)C(C(=O)Nc1c(C)cccc1Cl)c1ccccc1CO2 (centres undefined)
